Patent US6809091B1, “Substances capable of inducing apoptosis” (Takara Bio Inc., priority 1998, dated 2004)

Columns and labels:
HL-60 cells = test: analysis of fragmentation of DNA; format: cell-based, human
Procedure: (2) HL-60 cells which were incubated on an RPMI 1640 medium containing 10% of fetal bovine serum processed at 56° C. for 30 minutes were suspended in an RPMI 1640 medium to make 2.5×10^5 cells/5 ml.
To 5 ml the suspension were added 10 μl of 12.5 mM, 25 mM, 50 mM or 100 mM of a 70% ethanolic solution of 4,5-dihydroxy-2-pentenal, 0.05 mM, 0.5 mM, 5 mM or 50 mM of a 70% ethanolic solution of 4-hydroxy-2-cyclopenten-1-one, 5 mM, 10 mM or 20 mM of a 70% ethanolic solution of 4-(9-adeninyl)-2-cyclopenten-1-one prepared in Example 4-(4), 2.5 mM, 5 mM, 15 mM or 25 mM of a 70% ethanolic solution of 4-(9-guaninyl)-2-cyclopenten-1-one prepared in Example 4-(5) 75 mM, 150 mM or 300 mM of a 70% ethanolic solution of 1,5-epoxy-1-hydroxy-3-penten-2-one prepared in Example 5-(2) or 5 mM, 25 mM or 50 mM of a 70% ethanolic solution of 2-(trans-3,4-dihydroxy-1-butenyl)-4-(trans-2-formylvinyl)-1,3-dioxolane prepared in Example 6-(2) followed by incubating at 37° C. in the presence of 5% of carbon dioxide gas for 24 hours and 48 hours and the resulting cells were subjected to a measurement of apoptosis cells using FACScan by a method mentioned in pages 129-130 of “Experimental Protocol Series—Apoptosis Experiment Protocol” which was an extra issue of “Saibo Kogaku (Cell Technology)” (published by Shujunsha in 1994) and also to a measurement of analysis of fragmentation of DNA by a method mentioned in page 61-63 of “Biomanual UP Series—New Experimental Methods for Apoptosis” (published by Yodosha in 1995).

U937 cells = test: cell growth of U937 cells, Premix WST-1; format: cell-based, human
Procedure: (1) U937 cells (ATCC CRL-1593) which were […] established from pleural effusion of patients suffering from […] were suspended in an RPMI 1640 medium containing 10% of FBS to make its concentration 5×10^5 cells/ml and each 100 μl of the suspension was placed in each well of a 96-well microtiter plate. […] The mixture was incubated at 37° C. in the presence of carbon dioxide gas and, after 24, 48 and 72 hours, 10 μl of Premix WST-1 (MK 400; manufactured by Takara Shuzo) were added. The mixture was made to react at 37° C. for three hours and the value (A450-650) obtained by subtracting the absorbance at 650 nm (A650) from that at 450 nm (A450) was defined as a degree of cell growth.

human FGF-β = test: cytokine production in DSEK cells, ELISA; format: cell-based; conditions: DSEK cell incubation, supernatant every 24 hours
Procedure: Now, in the DSEK cell incubation, 150 μl/well of the supernatant liquid of the medium were recovered every 24 hours and influence of 4-hydroxy-2-cyclopenten-1-one or 4,5-dihydroxy-2-pentenal on the production of cytokines (human TGF-β, human FGF-β, human IL-1α and human IL-10) was measured using an ELISA-kit specific to each of the cytokine (the kit manufactured by INTERGEN or human FGF-β and human IL-10; and the kit manufactured by Promega for human IL-1α and human TGF-β).

[1] = tested on: hepatoblastoma HepG2 cells; test: cell growth of HepG2 cells, Premix WST-1; format: cell-based, human
Procedure: HepG2 cells (ACTT HB-8065) which were the cell strains established from the patients suffering from primary hepatoblastoma were suspended in a DMEM medium (manufactured by Gibco) containing 10% of FBS (manufactured by BioWhittaker) to an extent of 3.8×10^3 cells/ml, each 200 μl of the suspension were placed in each well of a 96-well microtiter plate and incubated at 37° C. in the presence of 5% carbon dioxide gas until the cells saturated in an incubator, the medium was exchanged, then 4-hydroxy-2-cyclopenten-1-one or […], the mixture was incubated for 24, 48 or 72 hours, 10 μl of Premix WST-1 (MK 400; manufactured by Takara Shuzo) were added thereto, the mixture was made to react at 37° C. for three hours and the value (A450-650) obtained by subtracting the absorbance at 650 nm (A650) from that at 450 nm (A450) was defined as a degree of cell growth.

[2] = tested on: heat shock protein of 70 kDa in HL-60; test: induction of heat shock protein of 70 kDa, SDS-PAGE and blotting; format: cell-based, human; parameters: key: “−” means no induction; “±” means a little induction; “+” shows the intensity of induction and the more the “+”, the more the induction; ++: “+” shows the intensity of induction and the more the “+”, the more the induction; +++: “+” shows the intensity of induction and the more the “+”, the more the induction; conditions: six hours
RAW 264.7 cells = test: cell growth in the NO production test; format: cell-based; conditions: final concentration of 10 μM

SMILES | Degree of Cell Growth (U937 cells; 50 μM, 24 hours) [A450-650] | Degree of Cell Growth (U937 cells; 50 μM, 48 hours) [A450-650] | Degree of Cell Growth (U937 cells; 50 μM, 72 hours) [A450-650] | Degree of Cell Growth (U937 cells; 75 μM, 24 hours) [A450-650] | Degree of Cell Growth (U937 cells; 75 μM, 48 hours) [A450-650] | Degree of Cell Growth (U937 cells; 75 μM, 72 hours) [A450-650] | Degree of Cell Growth (U937 cells; 100 μM, 24 hours) [A450-650] | Degree of Cell Growth (U937 cells; 100 μM, 48 hours) [A450-650] | Degree of Cell Growth (U937 cells; 100 μM, 72 hours) [A450-650] | Degree of Cell Growth (U937 cells; 150 μM, 24 hours) [A450-650] | Degree of Cell Growth (U937 cells; 150 μM, 48 hours) [A450-650] | Degree of Cell Growth (U937 cells; 150 μM, 72 hours) [A450-650] | Degree of Cell Growth (U937 cells; 200 μM, 24 hours) [A450-650] | Degree of Cell Growth (U937 cells; 200 μM, 48 hours) [A450-650] | Degree of Cell Growth (U937 cells; 200 μM, 72 hours) [A450-650] | production of human FGF-β (human FGF-β) | Degree of Cell Growth ([1]; 25 μM, 24 hours) [A450-650] | Degree of Cell Growth ([1]; 25 μM, 48 hours) [A450-650] | Degree of Cell Growth ([1]; 25 μM, 72 hours) [A450-650] | Degree of Cell Growth ([1]; 50 μM, 24 hours) [A450-650] | other results
O=C1C=CC(O)C1 (stereo not shown) [4-hydroxy-2-cyclopenten-1-one] | 0.501 | 0.930 | 0.875 | 0.557 | 0.968 | 0.821 | 0.591 | 1.054 | 0.532 | 0.524 | 1.126 | 0.478 | 0.353 | 0.643 | 0.338 | inhibited | 1.30 | 0.70 | 0.49 | 1.38 | fragmentation of DNA (HL-60 cells; HL-60, 10 μM final concentration): confirmed; Degree of Cell Growth ([1]; 50 μM, 48 hours): 0.81 A450-650; Degree of Cell Growth ([1]; 50 μM, 72 hours): 0.47 A450-650; Degree of Cell Growth ([1]; 100 μM, 24 hours): 1.31 A450-650; Degree of Cell Growth ([1]; 100 μM, 48 hours): 0.56 A450-650; Degree of Cell Growth ([1]; 100 μM, 72 hours): 0.35 A450-650; Degree of Cell Growth ([1]; 150 μM, 24 hours): 1.23 A450-650; Degree of Cell Growth ([1]; 150 μM, 48 hours): 0.43 A450-650; Degree of Cell Growth ([1]; 150 μM, 72 hours): 0.30 A450-650; intensity of induction of heat shock protein of 70 kDa ([2]; HL-60, 2.5 μM): −; intensity of induction of heat shock protein of 70 kDa ([2]; HL-60, 10 μM): +
O=C/C=C/C1COC(/C=C/C(O)CO)O1 (stereo not drawn) [2-(trans-3,4-dihydroxy-1-butenyl)-4-(trans-2-formylvinyl)-1,3-dioxolane] |  |  |  |  |  |  |  |  |  |  |  |  |  |  |  |  |  |  |  |  | inhibition of cell growth (RAW 264.7 cells): no inhibition of cell growth was noted at all
O=CC=CC(O)CO (single isomer, unassigned) [4,5-dihydroxy-2-pentenal, trans-4,5-dihydroxy-2-pentenal] | 0.821 | 1.471 | 1.245 | 0.606 | 0.879 | 0.862 | 0.560 | 0.948 | 0.597 | 0.505 | 0.823 | 0.465 | 0.370 | 0.644 | 0.753 |  | 3.39 | 2.69 | 1.70 | 1.97 | fragmentation of DNA (HL-60 cells; HL-60, 50 μM final concentration): confirmed; fragmentation of DNA (HL-60 cells; HL-60, 100 μM final concentration): confirmed; fragmentation of DNA (HL-60 cells; HL-60, 200 μM final concentration): confirmed; Degree of Cell Growth ([1]; 50 μM, 48 hours): 2.96 A450-650; Degree of Cell Growth ([1]; 50 μM, 72 hours): 1.70 A450-650; Degree of Cell Growth ([1]; 100 μM, 24 hours): 1.81 A450-650; Degree of Cell Growth ([1]; 100 μM, 48 hours): 2.70 A450-650; Degree of Cell Growth ([1]; 100 μM, 72 hours): 0.89 A450-650; Degree of Cell Growth ([1]; 150 μM, 24 hours): 1.40 A450-650; Degree of Cell Growth ([1]; 150 μM, 48 hours): 0.79 A450-650; Degree of Cell Growth ([1]; 150 μM, 72 hours): 0.35 A450-650; intensity of induction of heat shock protein of 70 kDa ([2]; HL-60, 1.25 μM): −
Nc1nc2c(ncn2C2C=CC(=O)C2)c(=O)[nH]1 (stereo not shown) [4-(9-guaninyl)-2-cyclopenten-1-one] |  |  |  |  |  |  |  |  |  |  |  |  |  |  |  | inhibited |  |  |  |  | 
